Measurements: PubChem BioAssay AID2060617 (Molecular Pharmacology Branch, DTP, NCI, 2025)

Tested on: 485368-065-R4-J2-PDC spheroids with HUVEC/MSC, viability
Test: Anticancer human tumor 485368-065-R4-J2-PDC patient-derived pancreatic carcinoma cell line growth inhibition [CLK]
Details: for IC50: curve of first compound; for viability, T/C: stronger effect = lower value
How it was run: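 Patient-derived tumor cells grown as complex spheroids with HUVEC endothelial cells and mesenchymal stem cells, treated with drug combinations. Concentrations descend in half-log steps from near clinical Cmax, or from 10 microM if Cmax unknown.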

[1] = second compound 0.0316 µM, first compound 0.0316 µM
[2] = second compound 0.0316 µM, first compound 0.1 µM
[3] = second compound 0.0316 µM, first compound 0.316 µM
[4] = second compound 0.0316 µM, first compound 1 µM
[5] = second compound 0.0316 µM, first compound 3.16 µM
[6] = second compound 0.0316 µM, first compound 10 µM
[7] = second compound 0.1 µM, first compound 0.0316 µM
[8] = second compound 0.1 µM, first compound 0.1 µM
[9] = second compound 0.1 µM, first compound 0.316 µM
[10] = second compound 0.1 µM, first compound 1 µM
[11] = second compound 0.1 µM, first compound 3.16 µM
[12] = second compound 0.1 µM, first compound 10 µM
[13] = second compound 0.316 µM, first compound 0.0316 µM
[14] = second compound 0.316 µM, first compound 0.1 µM
[15] = second compound 0.316 µM, first compound 0.316 µM
[16] = second compound 0.316 µM, first compound 1 µM
[17] = second compound 0.316 µM, first compound 3.16 µM
[18] = second compound 0.316 µM, first compound 10 µM
[19] = second compound 1 µM, first compound 0.0316 µM
[20] = second compound 1 µM, first compound 0.1 µM
[21] = second compound 1 µM, first compound 0.316 µM
[22] = second compound 1 µM, first compound 1 µM
[23] = second compound 1 µM, first compound 3.16 µM
[24] = second compound 1 µM, first compound 10 µM
[25] = second compound 3.16 µM, first compound 0.0316 µM
[26] = second compound 3.16 µM, first compound 0.1 µM
[27] = second compound 3.16 µM, first compound 0.316 µM
[28] = second compound 3.16 µM, first compound 1 µM
[29] = second compound 3.16 µM, first compound 3.16 µM
[30] = second compound 3.16 µM, first compound 10 µM
[31] = second compound 10 µM, first compound 0.0316 µM
[32] = second compound 10 µM, first compound 0.1 µM
[33] = second compound 10 µM, first compound 0.316 µM
[34] = second compound 10 µM, first compound 1 µM
[35] = second compound 10 µM, first compound 3.16 µM
[36] = second compound 10 µM, first compound 10 µM
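Further: spheroids exposed to compounds for seven days.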
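Wherever viability, T/C is given: 100% = DMSO vehicle control wells.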

Q: Which results are given for COc1cccc2c1C(=O)c1c(O)c3c(c(O)c1C2=O)CC(O)(C(=O)CO)CC3OC1CC(N)C(O)C(C)O1 (stereo not drawn) + CNC(=O)c1ccc(Nc2nc(OC3CCCC3)c3c(-c4ccc5nc(C)oc5c4)c[nH]c3n2)c(OC)c1?
A: IC50 (second compound 0.0316 µM): 0.445 µM; IC50 (second compound 0.1 µM): 0.406 µM; IC50 (second compound 0.316 µM): 0.27 µM; IC50 (second compound 1 µM): 0.156 µM; IC50 (second compound 3.16 µM): 0.136 µM; IC50 (second compound 10 µM): 0.111 µM; viability, T/C [1]: 89.3%; viability, T/C [2]: 94.2%; viability, T/C [3]: 56.9%; viability, T/C [4]: 31.6%; viability, T/C [5]: 8.22%; viability, T/C [6]: 23.9%; viability, T/C [7]: 101%; viability, T/C [8]: 100%; viability, T/C [9]: 55.9%; viability, T/C [10]: 26.9%; viability, T/C [11]: 7.71%; viability, T/C [12]: 22.3%; viability, T/C [13]: 101%; viability, T/C [14]: 86.2%; viability, T/C [15]: 45%; viability, T/C [16]: 18.6%; viability, T/C [17]: 6.61%; viability, T/C [18]: 25.7%; viability, T/C [19]: 91%; viability, T/C [20]: 66%; viability, T/C [21]: 25.1%; viability, T/C [22]: 11.3%; viability, T/C [23]: 6.11%; viability, T/C [24]: 23.9%; viability, T/C [25]: 76.6%; viability, T/C [26]: 61.7%; viability, T/C [27]: 17.9%; viability, T/C [28]: 8.87%; viability, T/C [29]: 6.5%; viability, T/C [30]: 15.5%; viability, T/C [31]: 76.6%; viability, T/C [32]: 53.4%; viability, T/C [33]: 17.2%; viability, T/C [34]: 7.28%; viability, T/C [35]: 7.64%; viability, T/C [36]: 17.4%

Q: Which IC50 (second compound 0.0316 µM) does the source give for COC1C=CCC(C)C(C)S(=O)(=O)NC(=O)c2ccc3c(c2)N(CC2CCC21)CC1(CCCc2cc(Cl)ccc21)CO3 (stereo not drawn) + CN1CCN(c2cc(C(=O)Nc3cc4cc(-c5cnn(C)c5)ccc4cn3)ccn2)CC1 here?
A: > 10 µM

Q: And the IC50 (second compound 0.1 µM)?
A: > 10 µM

Q: What about the IC50 (second compound 0.316 µM) of the same compound?
A: > 10 µM

Q: What about the IC50 (second compound 1 µM) of the same compound?
A: < 0.0316 µM

Q: What about the IC50 (second compound 3.16 µM) of the same compound?
A: < 0.0316 µM

Q: And the IC50 (second compound 10 µM)?
A: < 0.0316 µM

Q: And the viability, T/C [1]?
A: 105%

Q: What about the viability, T/C [2] of the same compound?
A: 106%

Q: And the viability, T/C [3]?
A: 106%

Q: And the viability, T/C [4]?
A: 113%

Q: And the viability, T/C [5]?
A: 104%

Q: What about the viability, T/C [6] of the same compound?
A: 91.6%

Q: And the viability, T/C [7]?
A: 117%

Q: What about the viability, T/C [8] of the same compound?
A: 124%

Q: What about the viability, T/C [9] of the same compound?
A: 107%

Q: What about the viability, T/C [10] of the same compound?
A: 114%

Q: What about the viability, T/C [11] of the same compound?
A: 108%

Q: And the viability, T/C [12]?
A: 90.8%

Q: And the viability, T/C [13]?
A: 84%

Q: What about the viability, T/C [14] of the same compound?
A: 86%

Q: And the viability, T/C [15]?
A: 87.2%

Q: And the viability, T/C [16]?
A: 78.6%

Q: And the viability, T/C [17]?
A: 81.8%

Q: What about the viability, T/C [18] of the same compound?
A: 63.5%

Q: And the viability, T/C [19]?
A: 1.08%

Q: What about the viability, T/C [20] of the same compound?
A: 2.18%

Q: And the viability, T/C [21]?
A: 2.96%

Q: And the viability, T/C [22]?
A: 2.24%

Q: What about the viability, T/C [23] of the same compound?
A: 1.88%

Q: What about the viability, T/C [24] of the same compound?
A: 6.49%

Q: What about the viability, T/C [25] of the same compound?
A: 1.15%

Q: What about the viability, T/C [26] of the same compound?
A: 3.34%

Q: And the viability, T/C [27]?
A: 1.27%

Q: And the viability, T/C [28]?
A: 2.24%

Q: And the viability, T/C [29]?
A: 2.02%

Q: What about the viability, T/C [30] of the same compound?
A: 4.8%

Q: What about the viability, T/C [31] of the same compound?
A: 2.15%

Q: What about the viability, T/C [32] of the same compound?
A: 4.22%

Q: And the viability, T/C [33]?
A: 1.64%

Q: And the viability, T/C [34]?
A: 3.68%

Q: What about the viability, T/C [35] of the same compound?
A: 2.18%

Q: What about the viability, T/C [36] of the same compound?
A: 2.71%

Q: Which results are given for CCc1c2c(nc3ccc(O)cc13)-c1cc3c(c(=O)n1C2)COC(=O)[C@]3(O)CC + CN1CCN(c2cc(C(=O)Nc3cc4cc(-c5cnn(C)c5)ccc4cn3)ccn2)CC1?
A: IC50 (second compound 0.0316 µM): < 0.00316 µM; IC50 (second compound 0.1 µM): < 0.00316 µM; IC50 (second compound 0.316 µM): < 0.00316 µM; IC50 (second compound 1 µM): < 0.00316 µM; IC50 (second compound 3.16 µM): < 0.00316 µM; IC50 (second compound 10 µM): < 0.00316 µM; viability, T/C (second compound 0.0316 µM, first compound 0.00316 µM): 38.6%; viability, T/C (second compound 0.0316 µM, first compound 0.01 µM): 20%; viability, T/C [1]: 11.3%; viability, T/C [2]: 7.09%; viability, T/C [3]: 8.74%; viability, T/C [4]: 11.7%; viability, T/C (second compound 0.1 µM, first compound 0.00316 µM): 33.3%; viability, T/C (second compound 0.1 µM, first compound 0.01 µM): 16.6%; viability, T/C [7]: 9.62%; viability, T/C [8]: 6.3%; viability, T/C [9]: 10.2%; viability, T/C [10]: 15.5%; viability, T/C (second compound 0.316 µM, first compound 0.00316 µM): 26.4%; viability, T/C (second compound 0.316 µM, first compound 0.01 µM): 12.7%; viability, T/C [13]: 8.57%; viability, T/C [14]: 8%; viability, T/C [15]: 11.9%; viability, T/C [16]: 13.1%; viability, T/C (second compound 1 µM, first compound 0.00316 µM): 2.16%; viability, T/C (second compound 1 µM, first compound 0.01 µM): 3.01%; viability, T/C [19]: 7.32%; viability, T/C [20]: 8.2%; viability, T/C [21]: 13.4%; viability, T/C [22]: 15.4%; viability, T/C (second compound 3.16 µM, first compound 0.00316 µM): 3.22%; viability, T/C (second compound 3.16 µM, first compound 0.01 µM): 5.26%; viability, T/C [25]: 11.6%; viability, T/C [26]: 11.3%; viability, T/C [27]: 14.1%; viability, T/C [28]: 13%; viability, T/C (second compound 10 µM, first compound 0.00316 µM): 2.58%; viability, T/C (second compound 10 µM, first compound 0.01 µM): 4.97%; viability, T/C [31]: 9.49%; viability, T/C [32]: 8.95%; viability, T/C [33]: 11.7%; viability, T/C [34]: 14%

Q: Which IC50 (second compound 0.0316 µM) does the source give for Nc1ccccc1NC(=O)c1ccc(CNC(=O)OCc2cccnc2)cc1 + CN1CCN(c2cc(C(=O)Nc3cc4cc(-c5cnn(C)c5)ccc4cn3)ccn2)CC1 here?
A: 6.96 µM

Q: What about the IC50 (second compound 0.1 µM) of the same compound?
A: 7.56 µM

Q: What about the IC50 (second compound 0.316 µM) of the same compound?
A: 2.52 µM

Q: What about the IC50 (second compound 1 µM) of the same compound?
A: < 0.0316 µM

Q: What about the IC50 (second compound 3.16 µM) of the same compound?
A: < 0.0316 µM

Q: What about the IC50 (second compound 10 µM) of the same compound?
A: < 0.0316 µM

Q: What about the viability, T/C [1] of the same compound?
A: 88.7%

Q: What about the viability, T/C [2] of the same compound?
A: 105%

Q: And the viability, T/C [3]?
A: 91%

Q: What about the viability, T/C [4] of the same compound?
A: 97.7%

Q: And the viability, T/C [5]?
A: 91.6%

Q: And the viability, T/C [6]?
A: 30.7%

Q: What about the viability, T/C [7] of the same compound?
A: 109%

Q: What about the viability, T/C [8] of the same compound?
A: 118%

Q: And the viability, T/C [9]?
A: 99.1%

Q: And the viability, T/C [10]?
A: 102%

Q: What about the viability, T/C [11] of the same compound?
A: 93.1%

Q: What about the viability, T/C [12] of the same compound?
A: 36.2%

Q: And the viability, T/C [13]?
A: 81.1%

Q: What about the viability, T/C [14] of the same compound?
A: 82.1%

Q: What about the viability, T/C [15] of the same compound?
A: 66.8%

Q: And the viability, T/C [16]?
A: 68.6%

Q: And the viability, T/C [17]?
A: 45.5%

Q: And the viability, T/C [18]?
A: 15.6%

Q: What about the viability, T/C [19] of the same compound?
A: 1.64%

Q: And the viability, T/C [20]?
A: 1.49%

Q: What about the viability, T/C [21] of the same compound?
A: 1.21%

Q: And the viability, T/C [22]?
A: 0.42%

Q: What about the viability, T/C [23] of the same compound?
A: 0.41%

Q: What about the viability, T/C [24] of the same compound?
A: 1.05%

Q: And the viability, T/C [25]?
A: 1.12%

Q: And the viability, T/C [26]?
A: 1.85%

Q: And the viability, T/C [27]?
A: 3.03%

Q: And the viability, T/C [28]?
A: 1.14%

Q: And the viability, T/C [29]?
A: 1.31%

Q: And the viability, T/C [30]?
A: 1.7%

Q: What about the viability, T/C [31] of the same compound?
A: 1.94%

Q: And the viability, T/C [32]?
A: 2.06%

Q: What about the viability, T/C [33] of the same compound?
A: 1.81%

Q: What about the viability, T/C [34] of the same compound?
A: 2.05%

Q: What about the viability, T/C [35] of the same compound?
A: 1.05%

Q: What about the viability, T/C [36] of the same compound?
A: 1.74%
